Experimental data published in patent publication EP0093643A1 (priority 1982, dated 1983).

Legend:
[1] = test system: récepteurs muscariniques de l'acétylcholine; format: binding, rat; conditions: compared with quinupramine; from IC50 of 3H-QNB displacement
sécrétion gastrique = test: Pentagastrin-stimulated gastric hypersecretion in dogs with a Heidenhain pouch; format: in vivo, chien; conditions: Canis lupus familiaris, po, voie orale, dog, pentagastrin infusion, dose reducing hourly acid output by 50 %, doses expressed as base, read-out: DE50 (the source's name)
Description: L'activité inhibitrice de la sécrétion gastrique du composé de l'exemple 1 a été comparée à celle du racémique correspondant à l'aide du test d'hypersécrétion gastrique stimulée par la pentagastrine chez le chien porteur d'une poche de Heidenhein.
Trois chiens "mongrels", porteurs d'une poche de Heidenhein, à jeun depuis 18 heures, reçoivent pendant 4 heures, par perfusion veineuse, […]/kg/heure de pentagastrine sous un volume de 30 ml/heure. La sécrétion de la poche est recueillie dans un flacon qui est changé toutes les 15 minutes. Une heure et demie après le début de la perfusion, le produit à étudier est administré par voie orale dans une gélule n° 000. La dose efficace 50 % (DE 50) eet la dose de produit qui diminue de 50 % le débit acide horaire enregistré pendant la 3ème ou 4ème heure de l'expérimentation par rapport au débit acide horaire enregistré lors de la deuxième heure do la perfusion.
Les résultats obtenus sont rassemblés dans le tableau ci-après, où les dosas sont exprimées en produit sous forme de base : […]

| Compound | activity relative to the corresponding racemate [1] | ED50 (sécrétion gastrique) |
| --- | --- | --- |
| c1ccc2c(c1)CCc1ccccc1N2[C@@H]1CN2CCC1CC2 [Exemple 2, [aza-1 bicyclo(2,2,2)octyl-3 (S)]-5 dihydro-10,11 5H-dibenz (b,f) azépine] | deux fois plus actif |  |
| CN(C)S(=O)(=O)c1ccc2c(c1)N([C@@H]1CN3CCC1CC3)c1ccccc1S2 [Exemple 1, N,N-diméthyl [aza-1 bicyclo(2,2,2)octyl-3(S)] - 10 10 H-phénothiazinesulfonamide-2] |  | 0.7 mg/kg |
| CN(C)S(=O)(=O)c1ccc2c(c1)N(C1CN3CCC1CC3)c1ccccc1S2 (racemic) [racémique correspondant, reference compound] |  | 1 mg/kg |
